Values quoted from earlier work, collected in article PMC5732038 (ACS chemical biology, 2017).

System: methicillin resistant Staphylococcus aureus (MRSA)
Details: several Gram-positive bacteria including MRSA

Sublancin
antimicrobial activity: antimicrobial activity
